Read-outs that look alike come from different tables or passages of the source.
Columns and labels:
Format in all cases: biochemical
CDK2/CCNE1 = CDK2/CCNE1 (Homo sapiens, UniProt P24941); experiment: CDK2 homogeneous time-resolved fluorescence (HTRF) kinase assay; settings: CDK2/CCNE
Method in brief: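 An HTRF format measures CDK2/CCNE1 (3 nM) phosphorylating a 4E-BP1 Thr37/46 peptide at high (1 mM) ATP. Reactions run one hour at 23 °C, then EDTA-quenched and probed with Eu-labelled phospho-specific antibody.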

CDK6/CCND1 = CDK6/CCND1 (Homo sapiens, UniProt Q00534); experiment: CDK6 homogeneous time-resolved fluorescence (HTRF) kinase assay; settings: CDK6/CCND, 1 mM ATP
Method in brief: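 Recombinant CDK6/CCND1 (1 nM final) was preincubated with compound for 20 min at 23 °C in HEPES buffer with MgCl2, EGTA, DTT and Tween 20. Kinase reaction then ran 60 min at 23 °C with 1 mM ATP and 50 nM ULight-4E-BP1 (Thr37/46) peptide, and was stopped with EDTA.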

CDK4/CCND3 = CDK4/CCND3 (Homo sapiens, UniProt P11802); experiment: CDK4 homogeneous time-resolved fluorescence (HTRF) kinase assay; settings: CDK4/CCND
Method in brief: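 HTRF kinase assay, CDK4/CCND3 1.5 nM, ATP 1 mM, ULight-4E-BP1 peptide 50 nM, 23 °C, 60 min reaction after 20 min preincubation. Eu-anti-pThr37/46 antibody detection. 11-pt half-log curves from 10 μM → IC50.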

CDK1/CCNB1 = CDK1/CCNB1 (Homo sapiens, UniProt P06493); experiment: CDK1 homogeneous time-resolved fluorescence (HTRF) kinase assay; settings: CDK1/CCNB
Method in brief: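 CDK1/CCNB1 0.5 nM + cpd, 20 min 23 °C; add 1 mM ATP, 50 nM ULight-4E-BP1 peptide, 60 min 23 °C; stop 10 mM EDTA; 2 nM Eu-Ab, 60 min; HTRF 665 nm. 11-pt half-log, top 10 μM typical; IC50.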

[1] = <25 nM, read-out: CDK2/CCNE IC50, <25 nM
[2] = >250 nM, read-out: CDK6/CCND IC50, >250 nM
[3] = >250 nM, read-out: CDK4/CCND IC50, >250 nM
[4] = >250 nM, read-out: CDK1/CCNB IC50 >250 nM
[5] = 25-250 nM, read-out: CDK2/CCNE IC50, 25-250 nM
[6] = 25-250 nM, read-out: CDK6/CCND IC50, 25-250 nM
[7] = 25-250 nM, read-out: CDK4/CCND IC50, 25-250 nM
[8] = 25-250 nM, read-out: CDK1/CCNB IC50, 25-250 nM
[9] = >250 nM, read-out: CDK2/CCNE IC50, >250 nM

Chain of CDK4/CCND3 (P11802 whole entry): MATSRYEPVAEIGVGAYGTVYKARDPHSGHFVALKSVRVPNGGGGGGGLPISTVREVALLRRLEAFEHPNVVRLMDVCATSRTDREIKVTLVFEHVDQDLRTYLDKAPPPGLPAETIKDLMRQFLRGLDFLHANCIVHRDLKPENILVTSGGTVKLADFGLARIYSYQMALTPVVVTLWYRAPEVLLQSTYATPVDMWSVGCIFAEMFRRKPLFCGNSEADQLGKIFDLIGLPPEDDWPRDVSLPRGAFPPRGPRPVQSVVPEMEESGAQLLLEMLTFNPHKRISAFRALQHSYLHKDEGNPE
Chain of CDK4/CCND3 (P30281 whole entry partner): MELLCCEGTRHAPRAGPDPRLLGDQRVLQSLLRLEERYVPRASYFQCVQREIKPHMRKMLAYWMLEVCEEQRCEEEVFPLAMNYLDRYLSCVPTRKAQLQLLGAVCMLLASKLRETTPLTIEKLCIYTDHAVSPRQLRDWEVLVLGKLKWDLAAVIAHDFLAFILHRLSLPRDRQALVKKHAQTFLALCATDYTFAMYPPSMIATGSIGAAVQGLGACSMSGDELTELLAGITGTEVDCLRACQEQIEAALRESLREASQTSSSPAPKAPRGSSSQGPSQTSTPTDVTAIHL
Chain of CDK6/CCND1 (Q00534 whole entry): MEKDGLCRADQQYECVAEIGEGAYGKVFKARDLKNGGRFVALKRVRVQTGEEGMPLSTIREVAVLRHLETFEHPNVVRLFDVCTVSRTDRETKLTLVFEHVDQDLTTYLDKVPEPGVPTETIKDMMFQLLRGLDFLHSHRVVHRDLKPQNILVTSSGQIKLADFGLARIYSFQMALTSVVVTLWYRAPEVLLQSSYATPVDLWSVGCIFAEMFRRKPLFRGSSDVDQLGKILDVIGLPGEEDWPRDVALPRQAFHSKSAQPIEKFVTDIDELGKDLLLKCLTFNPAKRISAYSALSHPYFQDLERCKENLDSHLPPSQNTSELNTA
Chain of CDK6/CCND1 (P24385 whole entry partner): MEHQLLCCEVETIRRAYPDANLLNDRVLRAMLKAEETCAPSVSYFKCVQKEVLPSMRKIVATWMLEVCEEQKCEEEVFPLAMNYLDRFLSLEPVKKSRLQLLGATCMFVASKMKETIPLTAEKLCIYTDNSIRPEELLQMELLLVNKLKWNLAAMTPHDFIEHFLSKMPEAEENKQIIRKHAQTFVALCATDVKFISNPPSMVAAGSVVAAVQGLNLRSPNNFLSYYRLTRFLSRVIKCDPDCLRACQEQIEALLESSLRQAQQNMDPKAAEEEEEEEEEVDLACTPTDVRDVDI
Chain of CDK1/CCNB1 (P06493 whole entry): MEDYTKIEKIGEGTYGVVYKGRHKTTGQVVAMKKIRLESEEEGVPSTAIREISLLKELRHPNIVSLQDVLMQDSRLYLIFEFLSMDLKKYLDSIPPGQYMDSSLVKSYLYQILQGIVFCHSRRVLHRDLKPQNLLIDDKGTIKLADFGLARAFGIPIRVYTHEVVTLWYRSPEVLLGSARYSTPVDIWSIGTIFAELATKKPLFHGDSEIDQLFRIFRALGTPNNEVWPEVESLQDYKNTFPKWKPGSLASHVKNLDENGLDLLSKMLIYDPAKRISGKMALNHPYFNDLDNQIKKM
Chain of CDK1/CCNB1 (P14635 whole entry partner): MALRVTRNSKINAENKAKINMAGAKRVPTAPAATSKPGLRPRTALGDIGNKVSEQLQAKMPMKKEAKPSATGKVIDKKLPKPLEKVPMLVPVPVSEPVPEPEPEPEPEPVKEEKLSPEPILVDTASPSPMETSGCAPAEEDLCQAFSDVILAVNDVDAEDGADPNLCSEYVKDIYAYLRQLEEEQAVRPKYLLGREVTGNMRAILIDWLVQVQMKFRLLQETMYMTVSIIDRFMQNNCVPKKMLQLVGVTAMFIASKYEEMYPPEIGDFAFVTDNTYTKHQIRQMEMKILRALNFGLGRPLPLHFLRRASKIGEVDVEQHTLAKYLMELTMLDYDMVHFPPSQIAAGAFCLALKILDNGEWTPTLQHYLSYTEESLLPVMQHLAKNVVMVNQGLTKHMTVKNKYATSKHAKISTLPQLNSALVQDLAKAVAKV

SMILES	IC50 (CDK2/CCNE1; [1])	IC50 (CDK6/CCND1; [2])	IC50 (CDK4/CCND3; [3])	IC50 (CDK1/CCNB1; [4])	IC50 (CDK2/CCNE1; [5])	IC50 (CDK6/CCND1; [6])	IC50 (CDK4/CCND3; [7])	IC50 (CDK1/CCNB1; [8])	IC50 (CDK2/CCNE1; [9])
Cc1cc(Nc2cc3c(-c4ccc5c(cnn5CC(C)(C)O)c4C)nccc3cn2)ccc1S(C)(=O)=O [Ex 836, 2-methyl-1-(4-methyl-5-(7-((3-methyl-4-(methylsulfonyl)phenyl)amino)-2,6-naphthyridin-1-yl)-1H-indazol-1-yl)propan-2-ol]	< 25 nM	> 250 nM	> 250 nM	> 250 nM					
COc1cc(Nc2cc3c(-c4ccc5c(cnn5CC(C)(C)O)c4C)nccc3cn2)ccc1S(C)(=O)=O [Ex 837, 1-(5-(7-((3-methoxy-4-(methylsulfonyl)phenyl)amino)-2,6-naphthyridin-1-yl)-4-methyl-1H-indazol-1-yl)-2-methylpropan-2-ol]		> 250 nM	> 250 nM	> 250 nM	25 to 250 nM				
COc1cc(S(C)(=O)=O)ccc1Nc1cc2c(-c3ccc4c(cnn4CC(C)(C)O)c3C)nccc2cn1 [Ex 838, 1-(5-(7-((2-methoxy-4-(methylsulfonyl)phenyl)amino)-2,6-naphthyridin-1-yl)-4-methyl-1H-indazol-1-yl)-2-methylpropan-2-ol]	< 25 nM	> 250 nM	> 250 nM	> 250 nM					
Cc1c(-c2nccc3cnc(Nc4ccc(NS(=O)(=O)c5cccnc5)cc4)cc23)ccc2c1cnn2CC(C)(C)O [Ex 839, N-(4-((5-(1-(2-hydroxy-2-methylpropyl)-4-methyl-1H-indazol-5-yl)-2,6-naphthyridin-3-yl)amino)phenyl)pyridine-3-sulfonamide]	< 25 nM					25 to 250 nM	25 to 250 nM	25 to 250 nM	
C[C@@H]1CN(C)CCN1c1cc(Nc2cc3c(C#Cc4ccc(=O)[nH]n4)nccc3cn2)cnc1O [Ex 840, (R)-6-((7-((5-(2,4-dimethylpiperazin-1-yl)-6-hydroxypyridin-3-yl)amino)-2,6-naphthyridin-1-yl)ethynyl)pyridazin-3(2H)-one]		> 250 nM	> 250 nM	> 250 nM					> 250 nM
Cc1ccnc(NS(=O)(=O)c2ccc(Nc3cc4c(-c5ccc6c(cnn6CC(C)(C)O)c5C)nccc4cn3)cc2)c1 [Ex 841, 4-((5-(1-(2-hydroxy-2-methylpropyl)-4-methyl-1H-indazol-5-yl)-2,6-naphthyridin-3-yl)amino)-N-(4-methylpyridin-2-yl)benzenesulfonamide]	< 25 nM			> 250 nM		25 to 250 nM	25 to 250 nM		
Cc1c(-c2nccc3cnc(Nc4ccc(S(=O)(=O)Nc5ccc(N6CCOCC6)nn5)cc4)cc23)ccc2c1cnn2CC(C)(C)O [Ex 842, 4-((5-(1-(2-hydroxy-2-methylpropyl)-4-methyl-1H-indazol-5-yl)-2,6-naphthyridin-3-yl)amino)-N-(6-morpholinopyridazin-3-yl)benzenesulfonamide]	< 25 nM					25 to 250 nM	25 to 250 nM	25 to 250 nM	
Cc1nn(C)cc1S(=O)(=O)Nc1ccc(Nc2cc3c(-c4ccc5c(cnn5CC(C)(C)O)c4C)nccc3cn2)cc1 [Ex 843, N-(4-((5-(1-(2-hydroxy-2-methylpropyl)-4-methyl-1H-indazol-5-yl)-2,6-naphthyridin-3-yl)amino)phenyl)-1,3-dimethyl-1H-pyrazole-4-sulfonamide]	< 25 nM			> 250 nM		25 to 250 nM	25 to 250 nM		
Cc1c(-c2nccc3cnc(Nc4ccc(S(C)(=O)=O)c(C(F)(F)F)c4)cc23)ccc2c1cnn2CC(C)(C)O [Ex 844, 2-methyl-1-(4-methyl-5-(7-((4-(methylsulfonyl)-3-(trifluoromethyl)phenyl)amino)-2,6-naphthyridin-1-yl)-1H-indazol-1-yl)propan-2-ol]		> 250 nM	> 250 nM	> 250 nM	25 to 250 nM				
Cc1cc(S(C)(=O)=O)ccc1Nc1cc2c(-c3ccc4c(cnn4CC(C)(C)O)c3C)nccc2cn1 [Ex 845, 2-methyl-1-(4-methyl-5-(7-((2-methyl-4-(methylsulfonyl)phenyl)amino)-2,6-naphthyridin-1-yl)-1H-indazol-1-yl)propan-2-ol]	< 25 nM		> 250 nM	> 250 nM		25 to 250 nM			
Cc1c(-c2nccc3cnc(Nc4ccc(S(C)(=O)=O)cc4F)cc23)ccc2c1cnn2CC(C)(C)O [Ex 846, 1-(5-(7-((2-fluoro-4-(methylsulfonyl)phenyl)amino)-2,6-naphthyridin-1-yl)-4-methyl-1H-indazol-1-yl)-2-methylpropan-2-ol]	< 25 nM	> 250 nM	> 250 nM	> 250 nM					
Cc1c(-c2nccc3cnc(Nc4ccc(S(C)(=O)=O)cc4Cl)cc23)ccc2c1cnn2CC(C)(C)O [Ex 847, 1-(5-(7-((2-chloro-4-(methylsulfonyl)phenyl)amino)-2,6-naphthyridin-1-yl)-4-methyl-1H-indazol-1-yl)-2-methylpropan-2-ol]		> 250 nM	> 250 nM	> 250 nM	25 to 250 nM				
Cc1c(-c2nccc3cnc(Nc4ccc(S(C)(=O)=O)cn4)cc23)ccc2c1cnn2CC(C)(C)O [Ex 848, 2-methyl-1-(4-methyl-5-(7-((5-(methylsulfonyl)pyridin-2-yl)amino)-2,6-naphthyridin-1-yl)-1H-indazol-1-yl)propan-2-ol]	< 25 nM			> 250 nM		25 to 250 nM	25 to 250 nM		

Now from value to compound:

IC50 (CDK2/CCNE1; [1])	IC50 (CDK6/CCND1; [2])	IC50 (CDK4/CCND3; [3])	IC50 (CDK1/CCNB1; [4])	IC50 (CDK2/CCNE1; [5])	IC50 (CDK6/CCND1; [6])	IC50 (CDK4/CCND3; [7])	IC50 (CDK1/CCNB1; [8])	IC50 (CDK2/CCNE1; [9])	SMILES
< 25 nM			> 250 nM		25 to 250 nM	25 to 250 nM			Cc1c(-c2nccc3cnc(Nc4ccc(S(=O)(=O)Nc5ncc(N6CCN(C)CC6)cn5)cc4)cc23)ccc2c1cnn2CC(C)(C)O [Ex 849, 4-((5-(1-(2-hydroxy-2-methylpropyl)-4-methyl-1H-indazol-5-yl)-2,6-naphthyridin-3-yl)amino)-N-(5-(4-methylpiperazin-1-yl)pyrimidin-2-yl)benzenesulfonamide]
< 25 nM	> 250 nM	> 250 nM	> 250 nM						Cc1c(-c2nccc3cnc(Nc4ccc(S(=O)(=O)Nc5ncc(N6CCOCC6)cn5)cc4)cc23)ccc2c1cnn2CC(C)(C)O [Ex 850, 4-((5-(1-(2-hydroxy-2-methylpropyl)-4-methyl-1H-indazol-5-yl)-2,6-naphthyridin-3-yl)amino)-N-(5-morpholinopyrimidin-2-yl)benzenesulfonamide]
	> 250 nM	> 250 nM	> 250 nM					> 250 nM	CCOC(=O)c1cn2cc(C#Cc3nccc4cnc(Nc5ccc(S(C)(=O)=O)cc5)cc34)ccc2n1 [Ex 851, ethyl6-((7-((4-(methylsulfonyl)phenyl)amino)-2,6-naphthyridin-1-yl)ethynyl)imidazo[1,2-a]pyridine-2-carboxylate]
	> 250 nM	> 250 nM	> 250 nM	25 to 250 nM					C[C@@H]1CN(c2cc(Nc3cc4c(C#Cc5ccc(=O)[nH]n5)nccc4cn3)cnc2O)CCN1C [Ex 853, (R)-6-((7-((5-(3,4-dimethylpiperazin-1-yl)-6-hydroxypyridin-3-yl)amino)-2,6-naphthyridin-1-yl)ethynyl)pyridazin-3(2H)-one absolute]
< 25 nM	> 250 nM	> 250 nM	> 250 nM						CC#Cc1nccc2cnc(Nc3ccc(S(=O)(=O)Nc4nccn4C)cc3)cc12 [Ex 854, N-(1-methyl-1H-imidazol-2-yl)-4-((5-(prop-1-yn-1-yl)-2,6-naphthyridin-3-yl)amino)benzenesulfonamide]
	> 250 nM	> 250 nM	> 250 nM	25 to 250 nM					Cc1c(-c2nccc3cnc(Nc4ccc(S(=O)(=O)Nc5nncn5C)cc4)cc23)ccc2c1cnn2CC(C)(C)O [Ex 855, 4-((5-(1-(2-hydroxy-2-methylpropyl)-4-methyl-1H-indazol-5-yl)-2,6-naphthyridin-3-yl)amino)-N-(4-methyl-4H-1,2,4-triazol-3-yl)benzenesulfonamide]
	> 250 nM	> 250 nM	> 250 nM	25 to 250 nM					Cn1ncc2cc(C#Cc3nccc4cnc(Nc5ccc(S(C)(=O)=O)cc5)cc34)ccc21 [Ex 856, 5-((1-methyl-1H-indazol-5-yl)ethynyl)-N-(4-(methylsulfonyl)phenyl)-2,6-naphthyridin-3-amine]
